Assay results as given in patent publication US9327145B2, “Cosmetic compositions comprising manikara multinervis and extracts thereof” (Cognis IP Management GmbH, priority 2009, dated 2016).
Marks after values point to notes of the source that are not given here.

Columns and labels:
human dermal fibroblasts [1] = test: Tropoelastin synthesis by immunocytochemistry (ICC); assay type: cell-based; settings: 10 ng/ml
Method: Manilkara multinervis extract according to example 1 was incubated on human dermal fibroblasts cultured in vitro and the synthesis of tropoelastin was measured in cell culture medium through an ICC method. It was tested in comparison to the positive reference TGF-β1 (Transforming Growth Factor-β1).
(§1) The human dermal fibroblasts were cultured within growth medium enriched with Fetal Calf Serum (FCS) and incubated for 3 days at 37° C. Then the growth medium was exchanged for a standard medium containing FCS at 1% and the Manilkara multinervis extract according to example 1 and incubated several days at 37° C. Thereafter, the tropoelastin synthesis was measured by immunocytochemistry (ICC) technique. The results were expressed in percentage of staining occupation and presented for 3 assays as a mean+/−SEM (Standard Error of Mean) of 6 measurements.

human dermal fibroblasts [2] = test: Fibulin-5 synthesis by immunocytochemistry (ICC); assay type: cell-based; settings: 10 ng/ml, mean only
Method: Manilkara multinervis extract according to example 1 was incubated on human dermal fibroblasts cultured in vitro and the synthesis of fibulin-5 was measured in cell culture medium through an ICC method. It was tested in comparison to the positive reference TGF-β1 (Transforming Growth Factor-β1).
as §1, with “and incubated for 5 days at” for “and incubated several days at”, “Thereafter, the fibulin-5 synthesis was” for “Thereafter, the tropoelastin synthesis was”, “presented for 2 assays as” for “presented for 3 assays as”

collagen type I = test: Anti-glycation: non enzymatic glycation of collagen type I incubated with glucose (Schiff's bases fluorescence); assay type: biochemical; settings: 3 weeks at 45° C., mean +/- SEM
Method: In order to evaluate the potential of Manilkara multinervis extract to reduce the rate of “non enzymatic” glycation of proteins such as skin collagen, the extract was tested in comparison to aminoguanidine as a positive reference. The “non-enzymatic” glycation results from the reaction of proteins with reducing sugars such as glucose and […]. These sugars react with the free amino groups present in the proteins to form the so called “Schiff's bases”, ultimately resulting in so-called “advanced glycosylation endproducts”. In human skin, the process of “non enzymatic” glycation causes in time a decrease of strength and an atrophy of dermis which are characteristic of skin aging.
The extracts were tested in vitro by incubating collagen type I in solution with glucose during 3 weeks at 45° C. Then the level of “non enzymatic” glycation was determined by measuring the rate of “Schiff's bases” through the record of fluorescence at 430 nm (excitation at 350 nm) of the supernatant solution recovered after centrifugation of the solutions during 15 minutes at 3500 rpm (revolution per minute). The rates of “non enzymatic” glycation were calculated as % referring to the control with glucose. The assays were repeated up to 6 times and the results were expressed in percentage referring to the control with glucose then presented as a mean+/− the SEM (standard error of mean) and statistically evaluated by the student t test. All % values given are weight-%.

human dermal fibroblasts [3] = test: Pro-collagen (type I) effect: released type I collagen (ELISA) and cellular proteins (Bradford); assay type: cell-based; settings: 5 μg/ml; 3 days; percentage referring to the control medium; mean +/- SEM
Method: Manilkara multinervis extract according to example 1 was incubated on human dermal fibroblasts cultured in vitro and the release of collagen type I was measured in cell culture medium through an ELISA method. It was tested in comparison to the positive reference vitamin C (ascorbic acid). The human dermal fibroblasts were cultured within growth medium enriched with Fetal Calf Serum (FCS) and incubated for 1 day at 37° C. […] Thereafter, the cell number was measured by quantification of cellular proteins (Bradford's method) while the level of collagen synthesis was determined by quantification of collagen peptides in cell culture medium (ELISA method). The results were calculated through a reference range of proteins or collagen and then expressed in percentage referring to the control medium and presented as a mean+/−SEM (Standard Error of Mean) from 4 assays in triplicate.

Molecule: TGF-β1: positive reference TGF-β1 (Transforming Growth Factor-β1)
- stimulation of tropoelastin synthesis (mean) (human dermal fibroblasts [1]): 82%
- % of staining occupation Assay 1 (fibulin-5) (human dermal fibroblasts [2]; Assay 1, control 15.57 +/− 4.38): 79.99%
- % of staining occupation Assay 2 (fibulin-5) (human dermal fibroblasts [2]; Assay 2, control 2.65 +/− 0.36): 18.8%

Molecule: N=C(N)NN [Aminoguanidine, aminoguanidine]
- Rate of Schiff's bases in %/control with glucose (collagen type I; 0.02%): 47 +/− 1** (n = 6) %/control with glucose
- Rate of Schiff's bases in %/control with glucose (collagen type I; 0.05%): 34 +/− 1** (n = 6) %/control with glucose
- Rate of Schiff's bases in %/control with glucose (collagen type I; 0.1%): 27 +/− 1** (n = 6) %/control with glucose

Molecule: O=C1O[C@H]([C@@H](O)CO)C(O)=C1O [Vitamin C, ascorbic acid]
- Cellular Proteins (human dermal fibroblasts [3]): 97 +/− 4%
- Released type I Collagen (human dermal fibroblasts [3]): 138 +/− 14** %
